These results are taken from patent publication US20260250250A1, “3-(SULPHONYL OR SULFONIMIDOYL)PROP-2-EN-1-YL]-2-OXO-1,2-DIHYDROPYRIDINE-3-CARBOXAMIDE DERIVATIVES” (Flinder Therapeutics B.V., priority 2022, published 2026).

Assay [1] relates to bladder carcinoma RT4 cell line. Put plainly: TNF-α-induced cytotoxicity assay (CellTiter-Glo viability). In kind it is cell-based. The conditions noted are these: Homo sapiens, RT-4, 72 h. A digest of the protocol:
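RT4 bladder carcinoma cells, 1000 per well, stimulated with 1.25 ng/mL TNFα together with compound for 72 h at 37° C., 5% CO2. Viability read by CellTiter-Glo luminescence, proportional to cellular ATP, as a measure of HOIP-dependent cytotoxicity.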

A further assay has as its system NF-κB signaling pathway. The experiment in a line: Cell-based dual luciferase NF-κB reporter assay (HEK293 cells, TNF stimulated). The conditions noted are these: Homo sapiens, HEK293. A digest of the protocol: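 HEK293 cells transfected with Firefly luciferase and NF-κB-response-element NanoLuc plasmids; compounds at 100–0.005 µM in 1% DMSO. Cells stimulated with 2.5 ng/mL TNF 30 min after compound addition. Firefly and NanoLuc activities read after 6 h by Nano-Glo dual-luciferase detection.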
On the technique in general: Reporter assays use an easily measured gene product as a stand-in for the process of interest.

Assay [2] has as its target T1, human E3 ubiquitin-protein ligase RNF31 (HOIP) (Homo sapiens, UniProt Q96EP0).
T1 sequence (Q96EP0 695-1072 limits assumed): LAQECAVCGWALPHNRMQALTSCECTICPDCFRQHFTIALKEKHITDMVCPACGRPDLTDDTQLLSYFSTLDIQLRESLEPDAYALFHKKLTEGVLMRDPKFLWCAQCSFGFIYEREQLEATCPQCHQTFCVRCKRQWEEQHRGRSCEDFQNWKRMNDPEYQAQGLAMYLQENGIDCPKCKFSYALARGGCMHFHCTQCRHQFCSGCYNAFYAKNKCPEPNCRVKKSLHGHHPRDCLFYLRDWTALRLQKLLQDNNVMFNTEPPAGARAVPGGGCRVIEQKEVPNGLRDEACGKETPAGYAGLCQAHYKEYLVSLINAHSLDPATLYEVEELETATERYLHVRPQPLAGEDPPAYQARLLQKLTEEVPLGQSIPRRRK
Put plainly: Cell-free HTRF-based HOIP inhibition assay. It counts as biochemical. In a few lines: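 HTRF read (ex 337 nm; em 665 and 620 nm) after a 2.5 h, 25° C. ubiquitination step started by adding E2 plus substrates. Before that, E. coli-expressed human HOIP fragment and E1 were incubated 1 h at 25° C. with compound at 100-0.005 μM, 1% DMSO final.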

Usually IC50 stands for the concentration needed to halve the response being measured. Regarding `CC12CC(C(=O)N3CCc4[nH]c(=O)c(C(=O)NC/C=C/S(=O)(=O)c5ccccc5)cc4C3)(C1)C2` [Example 114, N-[(2E)-3-(benzenesulfonyl)prop-2-en-1-yl]-6-{3-methylbicyclo[1.1.1]pentane-1-carbonyl}-2-oxo-1,2,5,6,7,8-hexahydro-1,6-naphthyridine-3-carboxamide], the IC50 was ≤ 100000 nM in assay [1], ≤ 10000 nM in the assay with NF-κB signaling pathway and ≤ 1000 nM in assay [2].
Take `CC1(C(=O)N2CCc3[nH]c(=O)c(C(=O)NC/C=C/S(=O)(=O)c4ccccc4)cc3C2)CCC1` [Example 115, N-[(2E)-3-(benzenesulfonyl)prop-2-en-1-yl]-6-(1-methylcyclobutanecarbonyl)-2-oxo-1,2,5,6,7,8-hexahydro-1,6-naphthyridine-3-carboxamide]: the figures for the IC50 (in assay [1]; with NF-κB signaling pathway; in assay [2]) were ≤ 100000 nM, ≤ 100000 nM and ≤ 1000 nM, respectively.
Consider `O=C(NC/C=C/S(=O)(=O)c1ccccc1)c1cc2c([nH]c1=O)CCN(C(=O)c1nc(C3CC3)cs1)C2` [Example 116, N-[(2E)-3-(benzenesulfonyl)prop-2-en-1-yl]-6-(4-cyclopropyl-1,3-thiazole-2-carbonyl)-2-oxo-1,2,5,6,7,8-hexahydro-1,6-naphthyridine-3-carboxamide], for which the IC50 in assay [1] was ≤ 10000 nM; in the assay on NF-κB signaling pathway it was ≤ 10000 nM; in assay [2] it was ≤ 100 nM.
On to `O=C(NC/C=C/S(=O)(=O)c1ccccc1)c1cc2c([nH]c1=O)CCN(C(=O)CC1CC1)C2` [Example 117, N-[(2E)-3-(benzenesulfonyl)prop-2-en-1-yl]-6-(2-cyclopropylacetyl)-2-oxo-1,2,5,6,7,8-hexahydro-1,6-naphthyridine-3-carboxamide], for which the half-maximal inhibitory concentration (IC50) in assay [1] was ≤ 100000 nM; in the assay with NF-κB signaling pathway, ≤ 100000 nM; in assay [2] it was ≤ 1000 nM.
Consider `CC(C)COC(=O)N1CCc2[nH]c(=O)c(C(=O)NC/C=C/S(=O)(=O)c3ccccc3)cc2C1` [Example 119, 2-methylpropyl 3-{[(2E)-3-(benzenesulfonyl)prop-2-en-1-yl]carbamoyl}-2-oxo-1,2,5,6,7,8-hexahydro-1,6-naphthyridine-6-carboxylate], for which the half-inhibitory concentration (IC50) was ≤ 1000 nM in assay [1], ≤ 1000 nM in the assay with NF-κB signaling pathway and ≤ 100 nM in assay [2].
Take `CC(C)(C)CC(=O)N1CCc2[nH]c(=O)c(C(=O)NC/C=C/S(=O)(=O)c3ccccc3)cc2C1` [Example 120, N-[(2E)-3-(benzenesulfonyl)prop-2-en-1-yl]-6-(3,3-dimethylbutanoyl)-2-oxo-1,2,5,6,7,8-hexahydro-1,6-naphthyridine-3-carboxamide]: the results for the IC50 (in assay [1]; in the assay with NF-κB signaling pathway; in assay [2]) were ≤ 10000 nM, ≤ 10000 nM and ≤ 1000 nM, respectively.
For `Cn1ncc2c(CN3CCc4[nH]c(=O)c(C(=O)NC/C=C/S(=O)(=O)c5ccccc5)cc4C3)cccc21` [Example 121, N-[(2E)-3-(benzenesulfonyl)prop-2-en-1-yl]-6-[(1-methyl-1H-indazol-4-yl)methyl]-2-oxo-1,2,5,6,7,8-hexahydro-1,6-naphthyridine-3-carboxamide], the figures for the half-maximal inhibitory concentration (IC50) (in assay [1]; with NF-κB signaling pathway; in assay [2]) were ≤ 10000 nM, ≤ 1000 nM and ≤ 100 nM, respectively.
The like results for `O=C(NC/C=C/S(=O)(=O)c1ccccc1)c1cc2c([nH]c1=O)CCN(C(=O)OCCc1ccc(Cl)cc1)C2` [Example 122, 2-(4-chlorophenyl)ethyl 3-{[(2E)-3-(benzenesulfonyl)prop-2-en-1-yl]carbamoyl}-2-oxo-1,2,5,6,7,8-hexahydro-1,6-naphthyridine-6-carboxylate] were, in that order, ≤ 1000 nM, ≤ 1000 nM and ≤ 1000 nM.
Take `O=C(NC/C=C/S(=O)(=O)c1ccccc1)c1cc2c([nH]c1=O)CCN(Cc1cccnn1)C2` [Example 123, N-[(2E)-3-(benzenesulfonyl)prop-2-en-1-yl]-2-oxo-6-[(pyridazin-3-yl)methyl]-1,2,5,6,7,8-hexahydro-1,6-naphthyridine-3-carboxamide]: the IC50 in assay [1] is ≤ 100000 nM; in the assay on NF-κB signaling pathway, ≤ 100000 nM; in assay [2], ≤ 1000 nM.
`O=C(NC/C=C/S(=O)(=O)c1ccccc1)c1cc2c([nH]c1=O)CCN(C(=O)C1CC1c1ccccc1)C2` (stereo not drawn) [Example 125, N-[(2E)-3-(benzenesulfonyl)prop-2-en-1-yl]-2-oxo-6-(2-phenylcyclopropanecarbonyl)-1,2,5,6,7,8-hexahydro-1,6-naphthyridine-3-carboxamide]: the IC50 in assay [1] was ≤ 10000 nM; with NF-κB signaling pathway, ≤ 10000 nM; in assay [2] it was ≤ 1000 nM.
Regarding `O=C(NC/C=C/S(=O)(=O)c1ccc(Cl)cc1Cl)c1cc(-c2ccccc2)c[nH]c1=O` [Example 126, N-[(2E)-3-(2,4-dichlorobenzenesulfonyl)prop-2-en-1-yl]-2-oxo-5-phenyl-1,2-dihydropyridine-3-carboxamide], the IC50 is ≤ 10000 nM in assay [1], ≤ 1000 nM in the assay on NF-κB signaling pathway and ≤ 100 nM in assay [2].
In the same order, the values of `O=C(NC/C=C/S(=O)(=O)c1ccc(F)cc1F)c1cc(-c2ccccc2)c[nH]c1=O` [Example 127, N-[(2E)-3-(2,4-difluorobenzenesulfonyl)prop-2-en-1-yl]-2-oxo-5-phenyl-1,2-dihydropyridine-3-carboxamide] are ≤ 10000 nM, ≤ 1000 nM and ≤ 1000 nM.
In the same order, the values of `O=C(NC/C=C/S(=O)(=O)c1ccc(F)cc1Cl)c1cc(-c2ccccc2)c[nH]c1=O` [Example 128, N-[(2E)-3-(2-chloro-4-fluorobenzenesulfonyl)prop-2-en-1-yl]-2-oxo-5-phenyl-1,2-dihydropyridine-3-carboxamide] are ≤ 10000 nM, ≤ 10000 nM and ≤ 1000 nM.
In the same order, the values of `N=S(=O)(/C=C/CNC(=O)c1cc2c([nH]c1=O)CCCC2)c1ccc(Cl)cc1` (stereo not drawn) [Example 131, N-[(2E)-3-[(4-chlorophenyl)(imino)oxo-λ^6-sulfanyl]prop-2-en-1-yl]-2-oxo-1,2,5,6,7,8-hexahydroquinoline-3-carboxamide] are ≤ 1000 nM, ≤ 1000 nM and ≤ 100 nM.
Regarding `N=S(=O)(/C=C/CNC(=O)c1cc2c([nH]c1=O)CCCC2)c1ccccc1F` (stereo not drawn) [Example 132, N-[(2E)-3-[(2-fluorophenyl)(imino)oxo-λ^6-sulfanyl]prop-2-en-1-yl]-2-oxo-1,2,5,6,7,8-hexahydroquinoline-3-carboxamide], the concentration for half-maximal inhibition (IC50) in assay [1] is ≤ 10000 nM; in the assay on NF-κB signaling pathway, ≤ 1000 nM; in assay [2], ≤ 1000 nM.
For `COc1ccc(S(=N)(=O)/C=C/CNC(=O)c2cc3c([nH]c2=O)CCCC3)cc1Cl` (stereo not drawn) [Example 133, N-[(2E)-3-[(3-chloro-4-methoxyphenyl)(imino)oxo-λ^6-sulfanyl]prop-2-en-1-yl]-2-oxo-1,2,5,6,7,8-hexahydroquinoline-3-carboxamide], the concentration for half-maximal inhibition (IC50) in assay [1] was ≤ 1000 nM; with NF-κB signaling pathway it was ≤ 1000 nM; in assay [2], ≤ 100 nM.
For `N=S(=O)(/C=C/CNC(=O)c1cc2c([nH]c1=O)CCCC2)c1cccc(Cl)c1` (stereo not drawn) [Example 134, N-[(2E)-3-[(3-chlorophenyl)(imino)oxo-λ^6-sulfanyl]prop-2-en-1-yl]-2-oxo-1,2,5,6,7,8-hexahydroquinoline-3-carboxamide], the IC50 (in assay [1]; in the assay on NF-κB signaling pathway; in assay [2]) was ≤ 1000 nM in each case.
Regarding `N=S(=O)(/C=C/CNC(=O)c1cc2c([nH]c1=O)CCCC2)c1ccc(F)cc1F` (stereo not drawn) [Example 135, N-[(2E)-3-[(2,4-difluorophenyl)(imino)oxo-λ^6-sulfanyl]prop-2-en-1-yl]-2-oxo-1,2,5,6,7,8-hexahydroquinoline-3-carboxamide], the half-inhibitory concentration (IC50) in assay [1] is ≤ 10000 nM; in the assay on NF-κB signaling pathway it was ≤ 1000 nM; in assay [2], ≤ 1000 nM.
Turning to `N#Cc1ccc(S(=N)(=O)/C=C/CNC(=O)c2cc3c([nH]c2=O)CCCC3)cc1` (stereo not drawn) [Example 136, N-[(2E)-3-[(4-cyanophenyl)(imino)oxo-λ^6-sulfanyl]prop-2-en-1-yl]-2-oxo-1,2,5,6,7,8-hexahydroquinoline-3-carboxamide], the IC50 in assay [1] was ≤ 10000 nM; with NF-κB signaling pathway it was ≤ 1000 nM; in assay [2], ≤ 100 nM.
The like results for `COc1ccc(S(=N)(=O)/C=C/CNC(=O)c2cc3c([nH]c2=O)CCCC3)cc1C` (stereo not drawn) [Example 137, N-[(2E)-3-[imino(4-methoxy-3-methylphenyl)oxo-λ^6-sulfanyl]prop-2-en-1-yl]-2-oxo-1,2,5,6,7,8-hexahydroquinoline-3-carboxamide] were, in that order, ≤ 1000 nM, ≤ 1000 nM and ≤ 1000 nM.
As for `CC(C)Oc1ccc(S(=N)(=O)/C=C/CNC(=O)c2cc3c([nH]c2=O)CCCC3)cc1` (stereo not drawn) [Example 138, N-[(2E)-3-[imino(oxo)[4-(propan-2-yloxy)phenyl]-λ^6-sulfanyl]prop-2-en-1-yl]-2-oxo-1,2,5,6,7,8-hexahydroquinoline-3-carboxamide], the IC50 (in assay [1]; with NF-κB signaling pathway; in assay [2]) was ≤ 1000 nM each time.
